In patent US4985449A, “N-benzoyl-N-pyridyloxy phenyl urea compounds and pesticide compositions containing them” (Ishihara Sangyo Kaisha Ltd., priority 1986, dated 1991):

What was measured:
Format in all cases: in vivo
[1] = system: house fly (Musca domestica); experiment: Larvicidal test against larvae of house fly (Test Example 4); conditions: feed or water, 240 h, 10 ppm in feed, second instar larvae, 10th day after release, emerged adults counted
Procedure: Powder feed for test animals (manufactured by Oriental Kobo Kogyo K.K.) and bran were mixed in a weight ratio of 1:1 and pulverized, and 10 g of the mixture was packed in an ice cream cup. Each of the formulations containing the active ingredients, was dispersed in water, and 10 ml of the dispersion was added to the mixture in the ice cream cup and thoroughly mixed to adjust the concentration of the active ingredient to 10 ppm. Into the ice cream cup, 20 larvae of house fly (Musca domestica) in second instar were released, and kept in a constant temperature chamber with lightening at 26° C. On the 10th day after the release, the emerged adults were counted, and the mortality was calculated in accordance with the following equation. [formula]

[2] = system: house mosquito (Cullex pipiens pallens); experiment: Larvicidal test against larvae of house mosquito (Test Example 5); conditions: 216 h, 2.5 ppb, 9th day after release, 26° C.
Procedure: Two hundreds ml of a diluted solution containing 2.5 ppb of each active ingredient was poured into a jar and 20 larvae of house mosquito (Cullex pipiens pallens) were released into the jar. Then, the jar was kept in a constant temperature chamber with lightening at 26° C. Larvae were fed every other day with 1-2 mg of powdered feed. On the 9th day after the release, dead insects were counted, and the mortality was calculated in the same manner as in Test Example 2. The results are shown in […]

[3] = system: house fly (Musca domestica); experiment: Egg hatch inhibition test by the treatment of adults of house fly (Test Example 6); conditions: po, 100 μg/g in diet of adult females for 3 days, unhatched eggs assessed one day after collection, read-out: ratio of the egg hatch inhibition (REHI)
Procedure: Sugar and skim milk were mixed in a weight ratio of 1:1, and 2 g of the mixture was put into a Petri dish having a diameter of 5.5 cm. 0.5 ml of an acetone solution containing the active ingredient was added to the mixture in the Petri dish. After acetone evaporated, the treated mixture was thoroughly mixed, and the concentration of the active ingredient was adjusted to 100 μg/g. Twenty non-mating females of house fly (Musca domestica) were allowed to feed on the poisoned diet (the treated mixture) in a cage. After 3 days, the diet was changed to the untreated mixture, then 20 non-mating males were released into the cage for mating. On the 3rd day after release, a cup of the medium for rearing fly larvae was set in the cage for oviposition for 7 hours. The egg laid on the medium were collected and kept on the moistened filter paper in a Petri dish. One day later, unhatched eggs were assessed and the ratio of the egg hatch inhibition (REHI) was calculated by the following equation: [formula]

[4] = system: two-spotted spider mite (Tetranychus urticae); experiment: Miticidal test against two-spotted spider mite (Test Example 1); conditions: 120 h, 5th day after treatment, larvae and nimphs on French bean, 26° C.
Text: Each formulation containing an active ingredient was dispersed in water to obtain a dispersion of each active ingredient having a concentration of 800 or 200 ppm. Each of French bean seedlings with only on primary leaf left, was transplanted to a cup having a diameter of 7 cm and a height of 4 cm. About 30 larvae and […] of two-spotted spider mite (Tetranychus urticae) were infested to the leaf of the French bean. Then, the French bean was dipped in the dispersion having the concentration of 800 ppm or 200 ppm for about 10 seconds, then dried in air and kept in a constant temperature chamber with lightening at 26° C. On the 5th day after the treatment, dead mites were counted, and the mortality was calculated by the following equation: [formula]

Compound | mortality at 10 ppm [1] | mortality at 0.0025 ppm [2] | inhibition at 100 µg/g [3] | mortality at 800 ppm [4] | mortality at 200 ppm [4]
COC(=O)c1cc(N(C)C(=O)NC(=O)c2c(F)cccc2F)cc(C)c1Oc1ncc(C(F)(F)F)cc1Cl [Compound No. 6] | 90% | – | – | – | –
CN(C(=O)NC(=O)c1c(F)cccc1F)c1cc(Cl)c(Oc2ncc(C(F)(F)F)cc2Cl)c(Cl)c1 [Compound No. 1, N-[3,5-dichloro-4-(3-chloro-5-trifluoromethyl-2-pyridyloxy)phenyl]-N'-(2,6difluorobenzoyl)-N-methylurea] | – | 100% | 100% | – | –
CN(C(=O)NC(=O)c1c(F)cccc1F)c1ccc(Oc2ccc(C(F)(F)F)cc2Cl)c(F)c1 [Compound No. 4, N-{4-[2-chloro-4-trifluoromethylphenoxy]-3-fluorophenyl}-N'-(2,6-difluorobenzoyl)-N-methylurea] | – | 100% | – | 90% | –
CN(C(=O)NC(=O)c1c(F)cccc1F)c1ccc(Oc2ncc(C(F)(F)F)cc2Cl)c(F)c1F [Compound No. 2, N-[4-(3-chloro-5-trifluoromethyl-2-pyridyloxy)-2,3-difluorophenyl]-N'-(2,6, -difluorobenzoyl)-N-methylurea] | – | 90% | – | – | –
CN(C(=O)NC(=O)c1c(F)cccc1F)c1ccc(Oc2ncc(C(F)(F)F)cc2Cl)c(F)c1 [Compound No. 3, N-{4-[3-chloro-5-trifluoromethyl-2-pyridyloxy]-3-fluorophenyl}-N'-(2,6-difluorobenzoyl)-N-methylurea] | – | 100% | 88% | – | –
CN(C(=O)NC(=O)c1c(F)cccc1F)c1ccc(Oc2ccc(C(F)(F)F)cc2Cl)c(Cl)c1 [compound 12, N-[3-chloro-4-(2-chloro-4-trifluoromethylphenoxy)phenyl]-N'-(2,6-difluorobenzoyl)-N-methylurea] | 100% | – | 100% | 100% | 100%
CN(C(=O)NC(=O)c1c(F)cccc1F)c1ccc(Oc2ccc(C(F)(F)F)cc2Cl)c(Cl)c1F [compound 13, N-[3-chloro-4-(2-chloro-4-trifluoromethylphenoxy)-2-fluorophenyl]-N'-(2,6-difluorobenzoyl)-N-methylurea] | 100% | – | 100% | – | 99%
CN(C(=O)NC(=O)c1c(F)cccc1F)c1cc(F)c(-c2ccc(C(F)(F)F)cc2)cc1F [Compound No. 24] | 100% | – | 100% | – | –
